Experimental data published in patent publication US20210338842A1, “DUAL-MODALITY NANOPROBE TARGETING GLIOBLASTOMA AND PREPARATION METHOD THEREOF” (West China Hospital of Sichuan University, priority 2020, published 2021).

Test: Evaluation of restricted permeability of in vitro BBB model with fluorescein sodium (Transwell)
Format: in vitro ADME, mouse
Conditions: NaFl 10 μg/mL in upper chamber, read-out: permeability coefficient Papp
Experimental: Experimental method: an in vitro blood-brain barrier model was established to evaluate the permeability of dual-modality nanoprobes. U87-MG cells and bEnd.3 cells were cultured in high glucose DMEM containing 10% fetal bovine serum and 1% penicillin/streptomycin at 37° C. and 5% CO2. A thin layer of collagen solution was evenly coated on the inner side of Transwell poly microporous lipid membrane, the membrane was placed on an ultra-clean table for about 30 min, and it was used after naturally dried. bEnd.3 cells were inoculated into the upper chamber of a 24-well Transwell at a density of 5×10^4 cells/well. Two days later, U87-MG cells were inoculated into the lower chamber of the upper chamber at a density of 1×10^5 cells/well, and the two kind of cells were continued to co-culture for one week.
The permeability of BBB in vitro was evaluated by fluorescein sodium, and a series of standard solutions of fluorescein sodium (NaFl) were prepared with PBS, with the concentrations of 0.05, 0.10, 0.15, 0.20, 0.25, 0.30, 0.35, 0.40, 0.45 and 0.50 μg/mL, respectively. The absorbance value was measured with a multifunctional ELISA reader (the excitation wavelength was set at 485 nm and the detection wavelength was 535 nm). Then the standard curve of NaFl concentration and absorbance value was made. […]

Papp A→B at 10 μg/mL (mouse, BBB model group, 30, 60, 90 min): 11.2 ± 0.73 ×10⁻⁶ cm/s
Papp at 10 μg/mL (small blank chamber (no cells)): 67.8 ×10⁻⁶ cm/s
Structure (SMILES): O=C1OC2(c3ccc(O)cc3Oc3cc(O)ccc32)c2ccccc21 [NaFl, Fluorescein sodium]
